Results published in PubChem BioAssay AID330 (DTP/NCI, 2004).
“And” between values parts separate entries of the source, which are not always exact repeats. Identical values can stand only once. Inconclusive results and toxic doses are left out. How the source made its calls: active means survival T/C of 150% or more; inactive means T/C below 125% in these data.

System: P388 leukemia ip, CD2F1 mice, survival T/C
Test: NCI In Vivo Anticancer Drug Screen. Data for tumor model P388 Leukemia (intraperitoneal) in CD2F1 (CDF1) mice
Settings: endpoint: median survival time, higher = longer survival
How it was run: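 Mice carrying the transplanted tumor received test compound or vehicle. Survival was recorded in each group, and the value is the treated-group measurement divided by that of the vehicle-treated control group.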

[1] = dose: 60.0 mg/kg/injection, schedule: Q01DX005 (ip), vehicle: Klucel (hydroxypropylcellulose) (HPC)
[2] = dose: 100.0 mg/kg/injection, schedule: Q04DX003 (ip), vehicle: saline with Tween-80
[3] = dose: 50.0 mg/kg/injection, schedule: Q01DX009 (ip), vehicle: saline
[4] = dose: 100.0 mg/kg/injection, schedule: Q01DX009 (ip), vehicle: saline
[5] = dose: 50.0 mg/kg/injection, schedule: Q01DX005 (ip), vehicle: saline with Tween-80
[6] = dose: 100.0 mg/kg/injection, schedule: Q01DX005 (ip), vehicle: saline with Tween-80
[7] = dose: 200.0 mg/kg/injection, schedule: Q01DX005 (ip), vehicle: saline with Tween-80
[8] = dose: 50.0 mg/kg/injection, schedule: Q01DX009 (ip), vehicle: saline with Tween-80
[9] = dose: 100.0 mg/kg/injection, schedule: Q01DX009 (ip), vehicle: saline with Tween-80
[10] = dose: 120.0 mg/kg/injection, schedule: Q01DX005 (ip), vehicle: Klucel (hydroxypropylcellulose) (HPC)
[11] = dose: 60.0 mg/kg/injection, schedule: Q01DX005 (ip), vehicle: saline
[12] = dose: 120.0 mg/kg/injection, schedule: Q01DX005 (ip), vehicle: saline
[13] = dose: 240.0 mg/kg/injection, schedule: Q01DX005 (ip), vehicle: saline
[14] = dose: 50.0 mg/kg/injection, schedule: Q01DX005 (ip), vehicle: saline
[15] = dose: 100.0 mg/kg/injection, schedule: Q01DX005 (ip), vehicle: saline
[16] = dose: 25.0 mg/kg/injection, schedule: Q01DX009 (ip), vehicle: saline
[17] = dose: 50.0 mg/kg/injection, schedule: Q01DX009 (ip), vehicle: water
[18] = dose: 100.0 mg/kg/injection, schedule: Q01DX009 (ip), vehicle: water
[19] = dose: 200.0 mg/kg/injection, schedule: Q01DX009 (ip), vehicle: saline
[20] = dose: 100.0 mg/kg/injection, schedule: Q01DX001 (ip), vehicle: saline with Tween-80
[21] = dose: 200.0 mg/kg/injection, schedule: Q01DX001 (ip), vehicle: saline with Tween-80

Measured: T/C

C=C(C)[C@H]1O[C@H]2CC[C@@]3(C)[C@@](O)(CC[C@H]4[C@@H]5OC(C)(C)[C@H]6C[C@@H]7C(=C)Cc8c(Cl)cc9[nH]c(c5c9c8C76O)[C@@]43C)[C@@]23O[C@H]3[C@H]1O (stereo not given in full)
inactive: dose: 0.5 mg/kg/injection, schedule: Q01DX005 (ip), vehicle: Klucel (hydroxypropylcellulose) (HPC) 101 % of control | dose: 1.0 mg/kg/injection, schedule: Q01DX005 (ip), vehicle: Klucel (hydroxypropylcellulose) (HPC) 97 % of control | dose: 2.0 mg/kg/injection, schedule: Q01DX005 (ip), vehicle: Klucel (hydroxypropylcellulose) (HPC) 87 % of control | dose: 3.75 mg/kg/injection, schedule: Q01DX005 (ip), vehicle: Klucel (hydroxypropylcellulose) (HPC) 107 % of control | dose: 4.0 mg/kg/injection, schedule: Q01DX005 (ip), vehicle: Klucel (hydroxypropylcellulose) (HPC) 93 % of control | dose: 7.5 mg/kg/injection, schedule: Q01DX005 (ip), vehicle: Klucel (hydroxypropylcellulose) (HPC) 115 % of control | dose: 15.0 mg/kg/injection, schedule: Q01DX005 (ip), vehicle: Klucel (hydroxypropylcellulose) (HPC) 106 % of control | dose: 30.0 mg/kg/injection, schedule: Q01DX005 (ip), vehicle: Klucel (hydroxypropylcellulose) (HPC) 107 % of control | [1] 107 % of control

CCC1(CC(=O)O)OCCc2c1[nH]c1c(C)c(F)ccc21 (stereo not given)
inactive: dose: 50.0 mg/kg/injection, schedule: Q01DX009 (ip), vehicle: Klucel (hydroxypropylcellulose) (HPC) 95 % of control | dose: 100.0 mg/kg/injection, schedule: Q01DX009 (ip), vehicle: Klucel (hydroxypropylcellulose) (HPC) 96 % of control | dose: 200.0 mg/kg/injection, schedule: Q01DX009 (ip), vehicle: Klucel (hydroxypropylcellulose) (HPC) 104 % of control

CN(C)[C@@H]1C(=O)C(C(=O)NCNCCCC(=O)O)=C(O)[C@@]2(O)C(=O)C3=C(O)c4c(O)cccc4[C@@](C)(O)[C@H]3C[C@@H]12
inactive: [2] 104 % of control | dose: 200.0 mg/kg/injection, schedule: Q04DX003 (ip), vehicle: saline with Tween-80 100 % of control | dose: 400.0 mg/kg/injection, schedule: Q04DX003 (ip), vehicle: saline with Tween-80 95 % of control

CC(C)(C)C(=O)CP(=O)(O)O (tested in a mixture with another compound)
inactive: [3] 105 % of control | [4] 101 % of control

ClSC(c1ccccc1)(c1ccccc1)c1ccccc1
inactive: [5] 103 % of control | [6] 118 % of control | [7] 94 % of control

COc1ccc(S(=O)(=O)N/N=C\c2cc([N+](=O)[O-])cc([N+](=O)[O-])c2O)cc1OC
inactive: [5] 99 % of control | [6] 100 % of control | [7] 99 % of control

O=c1ccc(=O)c2c(=O)c3cc4[nH]c5ccccc5[nH]c4cc3c(=O)c12
inactive: dose: 25.0 mg/kg/injection, schedule: Q01DX009 (ip), vehicle: saline with Tween-80 94 % of control | [8] 92 % of control | [9] 88 % of control

O=C(O)c1ccccc1Nc1c(C(=O)O)cnc2cc3c(cc12)OCO3
inactive: [1] 101 % of control | [10] 99 % of control | dose: 240.0 mg/kg/injection, schedule: Q01DX005 (ip), vehicle: Klucel (hydroxypropylcellulose) (HPC) 88 % of control

[O-][n+]1ccccc1[S][Sn]([Cl])([Cl])[S]c1cccc[n+]1[O-]
inactive: [8] 94 % of control | [9] 106 % of control | dose: 200.0 mg/kg/injection, schedule: Q01DX009 (ip), vehicle: saline with Tween-80 102 % of control

CCOC(=O)c1ccc(N2C(=O)C3C4C=CC(O4)C3C2=O)cc1 (stereo not given)
inactive: dose: 100.0 mg/kg/injection, schedule: Q04DX003 (ip), vehicle: Klucel (hydroxypropylcellulose) (HPC) 112 % of control | dose: 200.0 mg/kg/injection, schedule: Q04DX003 (ip), vehicle: Klucel (hydroxypropylcellulose) (HPC) 105 % of control | dose: 400.0 mg/kg/injection, schedule: Q04DX003 (ip), vehicle: Klucel (hydroxypropylcellulose) (HPC) 111 % of control

[N-]=[N+]=NCC1OC(n2cnc3c(N)ncnc32)CC1O (stereo not given)
inactive: [11] 104 % of control | [12] 100 % of control | [13] 104 % of control

O=C(O)C1C2c3ccccc3C(c3ccccc32)C1C(=O)NCC1CC1 (stereo not given)
inactive: [1] 109 % of control | [10] 110 % of control

N#C/C(=N\N=C(/C#N)c1ccc(Cl)cc1)c1ccc(Cl)cc1
inactive: [5] 97 % of control | [6] 94 % of control | [7] 88 % of control

O=C(C=C(C(F)(F)F)C(F)(F)F)c1ccc(C(=O)C=C(C(F)(F)F)C(F)(F)F)cc1
inactive: dose: 50.0 mg/kg/injection, schedule: Q04DX003 (ip), vehicle: saline with Tween-80 118 % of control | [2] 100 % of control

Cc1c(Cl)c2ccc(N(C)C)cc2[nH]c1=O
inactive: dose: 50.0 mg/kg/injection, schedule: Q01DX009 (ip), vehicle: acid diluted with saline 95 % of control | dose: 100.0 mg/kg/injection, schedule: Q01DX009 (ip), vehicle: acid diluted with saline 93 % of control | dose: 200.0 mg/kg/injection, schedule: Q01DX009 (ip), vehicle: acid diluted with saline 89 % of control

OCCCCC1COC(CC2OCC(CCCCO)O2)O1 (stereo not given)
inactive: [14] 101 % of control | [15] 100 % of control | dose: 200.0 mg/kg/injection, schedule: Q01DX005 (ip), vehicle: saline 101 % of control

CCN(CC)CCCC(C)Nc1nncc2cc(Cl)ccc12 (stereo not given)
inactive: [14] 95 % of control | [15] 97 % of control

[CH3][Sn]1([CH3])[O]C(=O)CC(CC(=O)O)C(=O)[O]1 (stereo not given)
inactive: dose: 12.5 mg/kg/injection, schedule: Q01DX005 (ip), vehicle: Klucel (hydroxypropylcellulose) (HPC) 119 % of control | dose: 25.0 mg/kg/injection, schedule: Q01DX005 (ip), vehicle: Klucel (hydroxypropylcellulose) (HPC) 117 % of control | dose: 50.0 mg/kg/injection, schedule: Q01DX005 (ip), vehicle: Klucel (hydroxypropylcellulose) (HPC) 113 % of control and 117 % of control

CC(=O)NNC(=O)c1ccccn1
inactive: dose: 12.5 mg/kg/injection, schedule: Q01DX009 (ip), vehicle: saline 90 % of control | [16] 92 % of control | [3] 96 % of control | [17] 110 % of control | dose: 75.0 mg/kg/injection, schedule: Q01DX009 (ip), vehicle: water 110 % of control | [4] 100 % of control | [18] 120 % of control | dose: 125.0 mg/kg/injection, schedule: Q01DX009 (ip), vehicle: water 120 % of control | [19] 88 % of control

Cc1ccc(S(=O)(=O)OI(O)c2ccccc2)cc1
inactive: [17] 108 % of control | [18] 104 % of control

CNC(=O)Nc1ccnc2ccc3c(ncn3C(=O)NC)c12
inactive: [20] 104 % of control | [21] 98 % of control

COC(=O)C1[C@@H](C(=O)c2ccccc2)N2C=Cc3ccccc3[C@@H]2[C@H]1C(=O)OC (stereo not given in full)
inactive: dose: 60.0 mg/kg/injection, schedule: Q01DX005 (ip), vehicle: saline + Tween-80 + alcohol 93 % of control | dose: 120.0 mg/kg/injection, schedule: Q01DX005 (ip), vehicle: saline + Tween-80 + alcohol 93 % of control | dose: 240.0 mg/kg/injection, schedule: Q01DX005 (ip), vehicle: saline + Tween-80 + alcohol 92 % of control

CCOC(=O)c1[nH]c(C)nc1/N=N/N(C)C
inactive: [16] 119 % of control | [3] 116 % of control | [19] 116 % of control

CC(C)=NNC1=NC(C)(C)P(=O)(NCC(=O)O)S1 (stereo not given)
inactive: [11] 103 % of control | [12] 103 % of control | [13] 100 % of control

CC(C)C/C=C\CCCCCCCCCC(=O)NCC(=O)O
inactive: dose: 12.5 mg/kg/injection, schedule: Q01DX009 (ip), vehicle: distilled water + Tween-80 93 % of control | dose: 25.0 mg/kg/injection, schedule: Q01DX009 (ip), vehicle: distilled water + Tween-80 92 % of control | dose: 50.0 mg/kg/injection, schedule: Q01DX009 (ip), vehicle: distilled water + Tween-80 95 % of control | dose: 100.0 mg/kg/injection, schedule: Q01DX009 (ip), vehicle: distilled water + Tween-80 93 % of control | dose: 200.0 mg/kg/injection, schedule: Q01DX009 (ip), vehicle: distilled water + Tween-80 100 % of control

COc1ccc(C2c3cc4c(cc3OC(C)(OC)C2C)OCO4)c(OC)c1OC (stereo not given)
inactive: [20] 94 % of control | [21] 94 % of control
